The source made the active and inactive calls. The calls are words filed in the database; no cut-off is given here.

The species entered for assay [1] is Sus scrofa. As to the kind of experiment: Competitive inhibition of pig PAP using para-nitrophenol as substrate at pH 4.9 preincubated for 10 mins by UV-visible spectrophotometry.
The species named for assay [2] is Sus scrofa. As to the kind of experiment: Uncompetitive inhibition of pig PAP using para-nitrophenol as substrate at pH 4.9 preincubated for 10 mins by UV-visible spectrophotometry.

`CC1(C)S[C@@H]2[C@H](NC(=O)c3ccc(C(=O)c4cccc([N+](=O)[O-])c4)cc3)C(=O)N2[C@H]1C(=O)O`: the Kic in the assay filed under Sus scrofa [1] amounted to 23 µM. Besides, in the assay listed under Sus scrofa [2], the Kiuc result is “inactive”.

Regarding `CC1(C)S[C@@H]2[C@H](NC(=O)c3ccc(C(=O)c4ccccc4)cc3)C(=O)N2[C@H]1C(=O)O`, the Kic in the assay listed under Sus scrofa [1] is 26 µM. For the same compound, in the assay filed under Sus scrofa [2], the Kiuc result is “inactive”.

Compound `CC1(C)S[C@@H]2[C@H](NC(=O)c3cccc(C(=O)N4CCCCC4)c3)C(=O)N2[C@H]1C(=O)O` returned a Kic in the assay filed under Sus scrofa [1] of 241 µM. In the assay filed under Sus scrofa [2], this compound returned a Kiuc of 491 µM.

In the assay filed under Sus scrofa [1], `CC1(C)S[C@@H]2[C@H](NC(=O)c3ccc(C(=O)c4ccc(Cl)cc4)cc3)C(=O)N2[C@H]1C(=O)O` yielded a Kic of 12 µM. Moreover, the Kiuc entry in the assay listed under Sus scrofa [2] is “inactive”.

Compound `Cc1ccc(C(=O)c2cccc(C(=O)N[C@@H]3C(=O)N4[C@@H]3SC(C)(C)[C@@H]4C(=O)O)c2)cc1` returned a Kic in the assay listed under Sus scrofa [1] of 60 µM. In addition, in the assay listed under Sus scrofa [2], the Kiuc result was “inactive”.

Compound `CC(=O)Oc1ccc(C(=O)N[C@@H]2C(=O)N3[C@@H]2SC(C)(C)[C@@H]3C(=O)O)cc1` gave a Kic in the assay listed under Sus scrofa [1] of 53 µM. The Kiuc result in the assay listed under Sus scrofa [2] was “inactive”.

In the assay filed under Sus scrofa [1], `CC1(C)S[C@@H]2[C@H](NC(=O)c3ccc(C(=O)c4ccccc4Cl)cc3)C(=O)N2[C@H]1C(=O)O` registered a Kic of 32 µM. Besides, the Kiuc result in the assay listed under Sus scrofa [2] was “inactive”.

`CC1(C)S[C@@H]2[C@H](NC(=O)Cc3ccccc3)C(=O)N2[C@H]1C(=O)O`: the Kic entry in the assay filed under Sus scrofa [1] is “inactive”. Besides, the Kiuc entry in the assay filed under Sus scrofa [2] was “inactive”.

For the compound `CC1(C)S[C@@H]2[C@H](NC(=O)c3ccc(C(=O)c4ccc([N+](=O)[O-])cc4)cc3)C(=O)N2[C@H]1C(=O)O`, the Kic in the assay filed under Sus scrofa [1] is 17 µM. Moreover, the Kiuc entry in the assay listed under Sus scrofa [2] was “inactive”.

The record behind these values is ChEMBL document CHEMBL2010750, “Penicillin inhibitors of purple acid phosphatase” (Bioorg Med Chem Lett, 2012).
